These results are taken from patent US20220054411A1, “MULTIPLE CONCENTRATE FORMULATION FOR MEDICAL PRODUCTS” (priority 2020, published 2022).

≈ marks a conversion by molar mass, not a printed value.

Common to all, as to assay type: cell-based
The test system of one assay is Pseudomonas Aeruginosa. Briefly: Minimal Inhibitory Concentration against Pseudomonas Aeruginosa.
For assay [1], the system named is Staphylococcus epidermidis. Briefly: Minimal Inhibitory Concentration against Staphylococcus epidermidis. The following applies: at 24 hours.
A further assay concerns Escherichia coli. The experiment in a line: Minimal Inhibitory Concentration against Escherichia coli.
The subject of the next assay is Staphylococcus Aureus. The experiment in a line: Minimal Inhibitory Concentration against Staphylococcus Aureus.

With `CCCCCCCCCCCC(=O)OCC(O)CO` (centres unmarked) [Monolaurin, monolaurin], the “Minimal Inhibitory Concentration” value with Pseudomonas Aeruginosa is 62.5 micrograms per milliliter; in assay [1], 1953 micrograms per milliliter; in the assay on Escherichia coli (pH 5, at 24 hours), 500 micrograms per milliliter; with Escherichia coli (pH 6, at 24 hours), 2,000 micrograms per milliliter; in the assay with Escherichia coli (pH 7, at 24 hours) it was >4,000 micrograms per milliliter; in the assay with Staphylococcus Aureus (pH 5, at 24 hours) it was 16 micrograms per milliliter. Also, the “Minimal Inhibitory Concentration” value was 64 micrograms per milliliter in the assay with Staphylococcus Aureus (pH 6, at 24 hours) and 128 micrograms per milliliter in the assay on Staphylococcus Aureus (pH 7, at 24 hours).
Take `C/C=C/C=C/C(=O)O` [Sorbic Acid, sorbic acid]: the minimum inhibitory concentration (MIC) was 312 µg/mL (≈ 2790 µM) with Escherichia coli (pH 5, at 24 hours); 1250 µg/mL (≈ 11100 µM) against Escherichia coli (pH 6, at 24 hours); over 5000 µg/mL in the assay with Escherichia coli (pH 7, at 24 hours); 156 µg/mL (≈ 1390 µM) against Staphylococcus Aureus (pH 5, at 24 hours); 312 µg/mL (≈ 2790 µM) against Staphylococcus Aureus (pH 6, at 24 hours); 1250 µg/mL (≈ 11100 µM) in the assay on Staphylococcus Aureus (pH 7, at 24 hours).
